Experiments:
human D2R/β-arrestin [1] = target: T1, human D2R/β-arrestin (Homo sapiens (Human), UniProt P14416); experiment: β-Arrestin agonist assay (PathHunter); type: cell-based; conditions: CHO-K1 cell line expressing human D2R/β-arrestin
Outline: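 After compound incubation, detection reagent (Buffer:Emerald II:Galactor-Star, 19:5:1) added and luminescence or fluorescence read.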

human D2R/β-arrestin [2] = target: T1, human D2R/β-arrestin; experiment: Gi/cAMP agonist assay (Lance Ultra cAMP, Forskolin); type: cell-based; conditions: CHO-K1 cell line expressing human D2R/β-arrestin
Outline: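 Cells were plated and incubated before compounds were pin-transferred and incubated for 10 min at 37 °C. Forskolin was then added to stimulate cAMP. cAMP was detected by Lance Ultra TR-FRET using Eu-cAMP tracer and ULight-anti-cAMP antibody.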

human D2R/β-arrestin [3] = target: T1, human D2R/β-arrestin; experiment: cell-based; conditions: β-arrestin Antagonist, CHO-K1 cell line expressing human D2R/β-arrestin; quinpirole used as agonist
Procedure: The detection reagents are then added, and the read-out is detected.
Cells were prepared for assays by growing cultures for up to 2 weeks (from about 6-20 passages). A vial of frozen cells was thawed in a water bath held at 37° C. The cells were then transferred into a 50 ml tube with 10 ml growth media. The vial was rinsed with growth media and the contents transferred to the 50 ml tube. The 50 ml tube was centrifuged at 1200 rpm for 5 minutes at room temperature. […] When the cells reached about 90% confluence (approximately 3 days between passages), the cells were passaged and used for either the agonist or antagonist assays as described below.
The cells were prepared for β-arrestin assays as described above. The assays were performed using a PathHunter® β-Arrestin Detecting Kit (DiscoveRX). The cells were grown on 225 mm dishes, then washed once with 1×PBS (Cellgro), followed by digestion with 2.5 ml 1× Detachment reagent (DRX 92-0009) for approximately 2 minutes.

human D2R/β-arrestin [4] = target: T1, human D2R/β-arrestin; experiment: cell-based; conditions: cAMP Antagonist, CHO-K1 cell line expressing human D2R/β-arrestin; quinpirole used as agonist

T1 sequence (P14416 whole entry): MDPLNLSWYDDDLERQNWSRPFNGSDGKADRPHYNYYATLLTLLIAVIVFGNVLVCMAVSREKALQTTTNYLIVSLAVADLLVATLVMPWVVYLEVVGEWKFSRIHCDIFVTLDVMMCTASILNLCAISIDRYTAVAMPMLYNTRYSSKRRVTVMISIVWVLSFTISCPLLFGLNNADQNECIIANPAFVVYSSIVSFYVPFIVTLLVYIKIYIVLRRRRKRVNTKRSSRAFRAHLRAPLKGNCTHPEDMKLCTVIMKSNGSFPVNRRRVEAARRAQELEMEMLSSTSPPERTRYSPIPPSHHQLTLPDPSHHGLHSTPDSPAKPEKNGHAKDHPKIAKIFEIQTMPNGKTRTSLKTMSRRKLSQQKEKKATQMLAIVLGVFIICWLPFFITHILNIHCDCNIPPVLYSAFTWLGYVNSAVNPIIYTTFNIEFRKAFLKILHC

Compound	EC50 (human D2R/β-arrestin [1]) [µM]	EC50 (human D2R/β-arrestin [2]) [µM]	IC50 (human D2R/β-arrestin [3]) [µM]	IC50 (human D2R/β-arrestin [4]) [µM]
O=C(NC(c1ccc(F)cc1)c1ccccn1)C1CCN(CCOc2cc(F)ccc2F)CC1 (stereo not drawn) [Compound 57, 1-(2-(2,5-difluorophenoxy)ethyl)-N-((4-fluorophenyl)(pyridin-2-yl)methyl) piperidine-4-carboxamide]	> 30	0.1 to 1	0.1 to 1	> 30
CC(C)(COc1ccccc1)N1CCC(C(=O)NC(c2ccc(F)cc2)c2ccccn2)CC1 (stereo not drawn) [Compound 58]	> 30	> 30	10 to 30	10 to 30
O=C(NC(c1ccc(F)cc1)c1ccccn1)C1CCN(Cc2cc3ccccc3o2)CC1 (stereo not drawn) [Compound 59]	> 30	> 30	> 30	10 to 30
O=C(NC(c1ccc(F)cc1)c1ccccn1)C1CCN(Cc2nc3ccccc3o2)CC1 (stereo not drawn) [Compound 60, 1-(benzo[d]oxazol-2-ylmethyl)-N-((4-fluorophenyl)(pyridin-2-yl)methyl)piperidine-4-carboxamide]	> 30	> 30	> 30	> 30
O=C(NC(c1ccc(F)cc1)c1ccccn1)C1CCN(CC2Cc3ccccc3C2)CC1 (stereo not drawn) [Compound 61, 1-((2,3-dihydro-1H-inden-2-yl)methyl)-N-((4-fluorophenyl)(pyridin-2-yl)methyl)piperidine-4-carboxamide]	> 30	> 30	10 to 30	10 to 30
O=C(NC(c1ccc(Cl)cc1)c1ccccn1)C1CCN(CCCOc2ccccc2)CC1 (stereo not drawn) [Compound 62, N-((4-chlorophenyl)(pyridin-2-yl)methyl)-1-(3-phenoxypropyl)piperidine-4-carboxamide]	> 30	> 30	1 to 10	0.1 to 1
CN1CCC(C(=O)NC(c2ccc(Cl)cc2)c2ccccn2)CC1 (stereo not drawn) [Compound 64, N-((4-chlorophenyl)(pyridin-2-yl)methyl)-1-methylpiperidine-4-carboxamide]	> 30	> 30	10 to 30	1 to 10
COCCN1CCC(C(=O)NC(c2ccc(Cl)cc2)c2ccccn2)CC1 (stereo not drawn) [Compound 65, N-((4-chlorophenyl)(pyridin-2-yl)methyl)-1-(2-methoxyethyl)piperidine-4-carboxamide]	> 30	> 30	10 to 30	1 to 10
O=C(NC(c1ccc(Cl)cc1)c1ccccn1)C1CCN(CCOc2c(F)cccc2F)CC1 (stereo not drawn) [Compound 67, N-((4-chlorophenyl)(pyridin-2-yl)methyl)-1-(2-(2,6-difluorophenoxy)ethyl)piperidine-4-carboxamide]	> 30	> 30	0.1 to 1	< 0.1
O=C(NC(c1ccc(Cl)cc1)c1ccccn1)C1CCN(CCOc2ccccc2OC(F)(F)F)CC1 (stereo not drawn) [Compound 68, N-((4-chlorophenyl)(pyridin-2-yl)methyl)-1-(2-(2-(trifluoromethoxy)phenoxy)ethyl) piperidine-4-carboxamide]	> 30	> 30	< 0.1	< 0.1
CC1(C(=O)NC(c2ccc(F)cc2)c2ccccn2)CCN(CCOc2ccccc2C(F)(F)F)CC1 (stereo not drawn) [Compound 70, N-((4-fluorophenyl)(pyridin-2-yl)methyl)-4-methyl-1-(2-(2-(trifluoromethyl)phenoxy)ethyl) piperidine-4-carboxamide]	> 30	0.1 to 1	0.1 to 1	0.1 to 1
CN(CC1CCN(CCOc2ccccc2C(F)(F)F)CC1)C(c1ccc(Cl)cc1)c1ccccn1 (stereo not drawn) [Compound 73]	> 30	> 30	< 0.1	< 0.1
CN(CC1CCN(CCOc2ccccc2)CC1)C(c1ccc(F)cc1)c1ccccn1 (stereo not drawn) [Compound 74, 1-(4-fluorophenyl)-N-methyl-N-((1-(2-phenoxyethyl)piperidin-4-yl)methyl)-1-(pyridin-2-yl)methanamine]	> 30	< 0.1	0.1 to 1	0.1 to 1
CN(CC1CCN(CCOc2ccccc2F)CC1)C(c1ccc(F)cc1)c1ccccn1 (stereo not drawn) [Compound 75, N-((1-(2-(2-fluorophenoxy)ethyl)piperidin-4-yl)methyl)-1-(4-fluorophenyl)-N-methyl-1-(pyridin-2-yl)methanamine]	> 30	< 0.1	0.1 to 1	0.1 to 1
COc1cccc(C(c2ccccn2)N(C)CC2CCN(CCOc3ccccc3)CC2)c1 (stereo not drawn) [Compound 76, 1-(3-methoxyphenyl)-N-methyl-N-((1-(2-phenoxyethyl)piperidin-4-yl)methyl)-1-(pyridin-2-yl)methanamine]	> 30	< 0.1	1 to 10	10 to 30
COc1cccc(C(c2ccccn2)N(C)CC2CCN(CCOc3ccccc3F)CC2)c1 (stereo not drawn) [Compound 77, N-((1-(2-(2-fluorophenoxy)ethyl)piperidin-4-yl)methyl)-1-(3-methoxyphenyl)-N-methyl-1-(pyridin-2-yl)methanamine]	> 30	< 0.1	0.1 to 1	1 to 10
Fc1ccc(C(NCC2CCN(CCOc3ccccc3)CC2)c2ccccn2)cc1 (stereo not drawn) [Compound 78, 1-(4-fluorophenyl)-N-((1-(2-phenoxyethyl)piperidin-4-yl)methyl)-1-(pyridin-2-yl)methanamine]	> 30	0.1 to 1	1 to 10	1 to 10
COc1cccc(C(NCC2CCN(CCOc3ccccc3)CC2)c2ccccn2)c1 (stereo not drawn) [Compound 80, 1-(3-methoxyphenyl)-N-((1-(2-phenoxyethyl)piperidin-4-yl)methyl)-1-(pyridin-2-yl)methanamine]	> 30	0.1 to 1	1 to 10	1 to 10
Fc1ccccc1C(NCC1CCN(CCOc2ccccc2)CC1)c1ccc(Cl)cc1 (stereo not drawn) [Compound 81, 1-(4-chlorophenyl)-1-(2-fluorophenyl)-N-((1-(2-phenoxyethyl)piperidin-4-yl)methyl)methanamine]	> 30	> 30	0.1 to 1	0.1 to 1
COc1cccc(C(NC(=O)C2CCN(CCOc3ccc4ncsc4c3)CC2)c2ccccn2)c1 (stereo not drawn) [Compound 82, 1-(2-(benzo[d]thiazol-6-yloxy)ethyl)-N-((3-methoxyphenyl)(pyridin-2-yl)methyl)piperidine-4-carboxamide]	> 30	> 30	10 to 30	1 to 10

Now from value to compound:

EC50 (human D2R/β-arrestin [1]) [µM]	EC50 (human D2R/β-arrestin [2]) [µM]	IC50 (human D2R/β-arrestin [3]) [µM]	IC50 (human D2R/β-arrestin [4]) [µM]	Compound
> 30	1 to 10	1 to 10	> 30	COc1ccccc1C(NC(=O)C1CCN(CCOc2ccccc2)CC1)c1ccc(Cl)cc1 (stereo not drawn) [Compound 43]
> 30	> 30	1 to 10	10 to 30	COc1ccc(C(NC(=O)C2CCN(CCOc3ccccc3)CC2)c2ccc(Cl)cc2)cc1 (stereo not drawn) [Compound 44]
> 30	> 30	1 to 10	0.1 to 1	O=C(NC(c1ccc(F)cc1)c1ccc(F)cc1)C1CCN(CCOc2ccccc2)CC1 [Compound 47, N-(bis(4-fluorophenyl)methyl)-1-(2-phenoxyethyl)piperidine-4-carboxamide]
> 30	1 to 10	1 to 10	> 30	O=C(NC(c1ccccc1F)c1ccccc1F)C1CCN(CCOc2ccccc2)CC1 [Compound 48, N-(bis(2-fluorophenyl)methyl)-1-(2-phenoxyethyl)piperidine-4-carboxamide]
> 30	1 to 10	0.1 to 1	1 to 10	O=C(NC(c1ccc(F)cc1)c1ccccc1F)C1CCN(CCOc2ccccc2)CC1 (stereo not drawn) [Compound 49, N-((2-fluorophenyl)(4-fluorophenyl)methyl)-1-(2-phenoxyethyl)piperidine-4-carboxamide]
> 30	0.1 to 1	1 to 10	> 30	COc1cccc(C(NC(=O)C2CCN(CCOc3ccccc3)CC2)c2ccccc2F)c1 (stereo not drawn) [Compound 50]
> 30	> 30	1 to 10	1 to 10	O=C(NC(c1ccc(F)cc1)c1ccccn1)C1CCN(CCOc2ccc3ncsc3c2)CC1 (stereo not drawn) [Compound 55, 1-(2-(benzo[d]thiazol-6-yloxy)ethyl)-N-((4-fluorophenyl)(pyridin-2-yl)methyl)piperidine-4-carboxamide]
> 30	> 30	0.1 to 1	0.1 to 1	O=C(NC(c1ccc(F)cc1)c1ccccn1)C1CCN(CCOc2c(F)cccc2F)CC1 (stereo not drawn) [Compound 56, 1-(2-(2,6-difluorophenoxy)ethyl)-N-((4-fluorophenyl)(pyridin-2-yl)methyl) piperidine-4-carboxamide]
0.1 to 1	< 0.1	0.1 to 1	> 30	CC1(C(=O)NC(c2ccc(F)cc2)c2ccccn2)CCN(CCOc2ccccc2)CC1 (stereo not drawn) [Compound 69, N-((4-fluorophenyl)(pyridin-2-yl)methyl)-4-methyl-1-(2-phenoxyethyl)piperidine-4-carboxamide]
< 0.1	< 0.1	0.1 to 1	> 30	CC1(C(=O)NC(c2ccc(F)cc2)c2ccccn2)CCN(CCOc2ccccc2F)CC1 (stereo not drawn) [Compound 71, 1-(2-(2-fluorophenoxy)ethyl)-N-((4-fluorophenyl)(pyridin-2-yl)methyl)-4-methylpiperidine-4-carboxamide]
